According to patent publication US20080009418A1, “Selective Inhibitors” (Alchemia LTD., priority 2004, published 2008):

Columns and labels:
Human δ-opioid (DOP) = target: T1, Human δ-opioid (DOP) (Homo sapiens, UniProt P41143); assay: Radioligand binding, human δ-opioid (DOP) membranes, FlashPlate, [3H]-Bremazocine; settings: compound at 10 μM; for A1 radioligand binding inhibition: human δ-opioid (DOP) membranes
T1 construct: purchased Perkin Elmer Biosignal
Method in brief: (§1)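 Cloned human receptor membranes were coated onto FlashPlate wells and incubated with radioligand and compound (added from a 0.5 mM DMSO daughter plate) for 1 hour at room temperature in the dark. Scintillation counting gave percent inhibition, with DMSO defining total and reference ligand defining non-specific binding.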

Human κ-Opioid (KOP) = target: T2, Human κ-Opioid (KOP) (Homo sapiens, UniProt P41145); assay: Radioligand binding, human κ-opioid (KOP) membranes, filtration, [3H]-Diprenorphine; settings: compound at 10 μM; for A2 radioligand binding inhibition: human κ-opioid (KOP) membranes
T2 construct: purchased Perkin Elmer Biosignal
T2 sequence (P41145 whole entry): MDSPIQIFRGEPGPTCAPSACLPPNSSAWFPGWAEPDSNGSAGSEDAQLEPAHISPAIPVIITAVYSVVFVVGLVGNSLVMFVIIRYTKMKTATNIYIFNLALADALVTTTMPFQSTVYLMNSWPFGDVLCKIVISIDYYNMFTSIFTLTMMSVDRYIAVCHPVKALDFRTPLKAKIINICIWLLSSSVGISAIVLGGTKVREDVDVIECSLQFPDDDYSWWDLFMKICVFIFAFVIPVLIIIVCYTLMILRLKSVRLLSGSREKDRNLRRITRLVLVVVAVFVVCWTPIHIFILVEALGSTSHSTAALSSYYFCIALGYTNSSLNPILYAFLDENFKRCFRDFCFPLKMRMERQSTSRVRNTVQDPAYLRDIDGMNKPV
Method in brief: (§2)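 Filtration binding on cloned human receptor membranes (1 Unit/well), [125I]-Substance P for NK1 and [3H]-Diprenorphine for KOP, 1 h at room temperature. Filters PEI-presoaked, washed with cold 50 mM Tris-HCl pH 7.4, counted by scintillation; percent inhibition calculated, reference ligand defining non-specific binding.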

Human Melanocortin (MC3) = target: T3, Human Melanocortin (MC3) (Homo sapiens, UniProt P41968); assay: Radioligand binding, human melanocortin MC3 membranes, FlashPlate, [125I]-NDP-αMSH; settings: compound at 10 μM; for A3 radioligand binding inhibition: human melanocortin MC3 membranes
T3 construct: purchased Perkin Elmer Biosignal
T3 sequence (P41968 whole entry): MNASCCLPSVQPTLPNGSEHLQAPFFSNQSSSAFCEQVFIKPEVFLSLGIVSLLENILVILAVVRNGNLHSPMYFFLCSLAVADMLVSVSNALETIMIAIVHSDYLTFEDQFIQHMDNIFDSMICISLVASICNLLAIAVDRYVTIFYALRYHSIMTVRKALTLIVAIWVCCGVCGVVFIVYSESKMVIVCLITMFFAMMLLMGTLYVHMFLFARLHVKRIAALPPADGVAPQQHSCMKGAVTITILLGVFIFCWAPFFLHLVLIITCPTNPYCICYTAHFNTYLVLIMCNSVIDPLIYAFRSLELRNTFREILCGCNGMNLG
Method in brief: as §1

Human Melanocortin (MC4) = target: T4, Human Melanocortin (MC4) (Homo sapiens, UniProt P32245); assay: Radioligand binding, human melanocortin MC4 membranes, FlashPlate, [125I]-NDP-αMSH; settings: compound at 10 μM; for A4 radioligand binding inhibition: human melanocortin MC4 membranes
T4 construct: purchased Perkin Elmer Biosignal
T4 sequence (P32245 whole entry): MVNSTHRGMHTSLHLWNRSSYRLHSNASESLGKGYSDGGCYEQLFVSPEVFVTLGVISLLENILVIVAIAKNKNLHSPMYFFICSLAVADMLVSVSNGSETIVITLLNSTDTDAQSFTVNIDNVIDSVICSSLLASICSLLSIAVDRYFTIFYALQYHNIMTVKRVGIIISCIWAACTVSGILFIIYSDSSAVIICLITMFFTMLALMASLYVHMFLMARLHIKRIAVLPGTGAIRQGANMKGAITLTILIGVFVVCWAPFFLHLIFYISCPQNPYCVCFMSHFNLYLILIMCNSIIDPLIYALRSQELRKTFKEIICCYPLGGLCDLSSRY
Method in brief: as §1

Human melanocortin (MC5) = target: T5, Human melanocortin (MC5) (Homo sapiens, UniProt P33032); assay: Radioligand binding, human melanocortin MC5 membranes, FlashPlate, [125I]-NDP-αMSH; settings: compound at 10 μM; for A5 radioligand binding inhibition: human melanocortin MC5 membranes
T5 construct: purchased Perkin Elmer Biosignal
T5 sequence (P33032 whole entry): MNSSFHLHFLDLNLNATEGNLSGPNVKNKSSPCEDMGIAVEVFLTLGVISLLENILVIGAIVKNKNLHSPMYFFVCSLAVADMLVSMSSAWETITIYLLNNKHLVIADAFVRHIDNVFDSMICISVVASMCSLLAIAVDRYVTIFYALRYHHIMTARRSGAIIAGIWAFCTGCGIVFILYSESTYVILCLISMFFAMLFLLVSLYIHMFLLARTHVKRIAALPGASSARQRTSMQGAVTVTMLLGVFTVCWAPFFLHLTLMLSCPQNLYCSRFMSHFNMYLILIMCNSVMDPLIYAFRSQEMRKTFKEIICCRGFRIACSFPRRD
Method in brief: as §1

[1] = target: T6, Human melanin-concentrating hormone (MCH1) (Homo sapiens, UniProt Q99705); assay: Radioligand binding, human melanin-concentrating hormone MCH1 membranes, FlashPlate, [125I]-S36057; settings: compound at 10 μM; for A6 radioligand binding inhibition: human MCH1 membranes
T6 construct: purchased Perkin Elmer Biosignal
T6 sequence (Q99705 whole entry): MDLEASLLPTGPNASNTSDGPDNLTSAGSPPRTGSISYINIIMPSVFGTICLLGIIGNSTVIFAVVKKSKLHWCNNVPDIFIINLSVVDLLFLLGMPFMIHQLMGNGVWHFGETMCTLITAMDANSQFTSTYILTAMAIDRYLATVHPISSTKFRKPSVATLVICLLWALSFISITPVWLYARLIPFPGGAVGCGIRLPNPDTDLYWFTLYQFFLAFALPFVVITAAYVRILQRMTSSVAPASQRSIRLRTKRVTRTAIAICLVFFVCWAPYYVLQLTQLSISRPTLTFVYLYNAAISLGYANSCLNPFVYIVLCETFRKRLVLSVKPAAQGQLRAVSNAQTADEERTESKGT
Method in brief: as §1

Human μ-opioid (MOP) = target: T7, Human μ-opioid (MOP) (Homo sapiens, UniProt P35372); assay: Radioligand binding, human μ-opioid (MOP) membranes, FlashPlate, [3H]-Naloxone; settings: compound at 10 μM; for A7 radioligand binding inhibition: human μ-opioid (MOP) membranes
T7 construct: purchased Perkin Elmer Biosignal
T7 sequence (P35372 whole entry): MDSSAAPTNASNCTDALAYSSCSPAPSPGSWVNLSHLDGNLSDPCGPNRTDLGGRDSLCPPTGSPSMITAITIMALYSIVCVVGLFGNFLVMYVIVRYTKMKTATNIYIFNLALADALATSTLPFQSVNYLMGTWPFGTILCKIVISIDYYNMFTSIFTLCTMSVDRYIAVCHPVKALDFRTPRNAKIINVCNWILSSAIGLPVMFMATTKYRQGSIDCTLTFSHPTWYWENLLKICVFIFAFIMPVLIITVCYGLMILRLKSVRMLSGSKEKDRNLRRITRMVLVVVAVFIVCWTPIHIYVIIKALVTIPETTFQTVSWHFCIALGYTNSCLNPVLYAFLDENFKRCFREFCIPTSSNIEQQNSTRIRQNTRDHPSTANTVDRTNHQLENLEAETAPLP
Method in brief: as §1

Human neurokinin (NK1) = target: T8, Human neurokinin (NK1) (Homo sapiens, UniProt P25103); assay: Radioligand binding, human neurokinin NK1 membranes, filtration, [125I]-Substance P; settings: compound at 10 μM; for A8 radioligand binding inhibition: human neurokinin NK1 membranes
T8 construct: purchased Perkin Elmer Biosignal
T8 sequence (P25103 whole entry): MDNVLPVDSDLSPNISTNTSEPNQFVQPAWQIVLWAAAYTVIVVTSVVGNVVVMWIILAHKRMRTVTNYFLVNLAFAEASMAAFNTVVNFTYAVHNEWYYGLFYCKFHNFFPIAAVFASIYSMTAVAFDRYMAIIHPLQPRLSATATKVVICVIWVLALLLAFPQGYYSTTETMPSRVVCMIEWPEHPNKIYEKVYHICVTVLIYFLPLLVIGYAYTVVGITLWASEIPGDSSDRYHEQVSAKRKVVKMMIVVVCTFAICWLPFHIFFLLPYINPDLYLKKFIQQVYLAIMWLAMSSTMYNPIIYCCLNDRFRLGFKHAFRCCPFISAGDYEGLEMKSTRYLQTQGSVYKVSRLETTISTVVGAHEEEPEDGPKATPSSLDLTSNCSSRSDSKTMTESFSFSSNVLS
Method in brief: as §2

[2] = target: T9, Human neuropeptide Y (NPY-Y1) (Homo sapiens, UniProt P25929); assay: Radioligand binding, human neuropeptide Y NPY-Y1 membranes, FlashPlate, [125I]-PYY; settings: compound at 10 μM
T9 construct: purchased Perkin Elmer Biosignal
T9 sequence (P25929 1-384): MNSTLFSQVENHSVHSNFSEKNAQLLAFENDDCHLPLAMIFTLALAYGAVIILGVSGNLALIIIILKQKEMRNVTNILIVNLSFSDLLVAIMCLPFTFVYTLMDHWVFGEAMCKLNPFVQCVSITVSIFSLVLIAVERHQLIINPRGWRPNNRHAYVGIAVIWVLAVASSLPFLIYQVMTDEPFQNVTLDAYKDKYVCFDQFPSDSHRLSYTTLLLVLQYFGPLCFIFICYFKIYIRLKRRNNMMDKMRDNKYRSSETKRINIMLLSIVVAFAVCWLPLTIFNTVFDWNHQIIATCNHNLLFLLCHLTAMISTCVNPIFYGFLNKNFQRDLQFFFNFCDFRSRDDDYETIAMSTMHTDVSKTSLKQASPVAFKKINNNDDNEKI
Method in brief: as §1

Human opioid (ORL1) = target: T10, Human opioid (ORL1) (Homo sapiens, UniProt P41146); assay: Radioligand binding, human opioid ORL1 membranes, FlashPlate, [125I]-Nociceptin; settings: compound at 10 μM
T10 construct: purchased Perkin Elmer Biosignal
T10 sequence (P41146 whole entry): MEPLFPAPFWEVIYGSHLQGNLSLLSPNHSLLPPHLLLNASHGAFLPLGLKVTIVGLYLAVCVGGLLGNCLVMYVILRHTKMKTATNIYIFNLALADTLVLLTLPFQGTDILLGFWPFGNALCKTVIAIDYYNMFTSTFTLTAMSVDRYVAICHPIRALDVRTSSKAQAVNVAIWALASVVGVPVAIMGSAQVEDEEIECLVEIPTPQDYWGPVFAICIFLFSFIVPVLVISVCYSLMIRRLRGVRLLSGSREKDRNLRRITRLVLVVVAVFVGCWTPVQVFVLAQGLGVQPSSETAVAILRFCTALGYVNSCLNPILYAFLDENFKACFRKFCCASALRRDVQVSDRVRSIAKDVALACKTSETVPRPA
Method in brief: as §1

Mouse urotensin (mUR2) = target: T11, Mouse urotensin (mUR2) (Mus musculus, UniProt Q8VIH9); assay: Radioligand binding, mouse urotensin mUR2 membranes, FlashPlate, [125I]-Urotensin II; settings: compound at 10 μM; for A11 radioligand binding inhibition: mouse urotensin mUR2 membranes
T11 construct: purchased Perkin Elmer Biosignal
T11 sequence (Q8VIH9 1-385): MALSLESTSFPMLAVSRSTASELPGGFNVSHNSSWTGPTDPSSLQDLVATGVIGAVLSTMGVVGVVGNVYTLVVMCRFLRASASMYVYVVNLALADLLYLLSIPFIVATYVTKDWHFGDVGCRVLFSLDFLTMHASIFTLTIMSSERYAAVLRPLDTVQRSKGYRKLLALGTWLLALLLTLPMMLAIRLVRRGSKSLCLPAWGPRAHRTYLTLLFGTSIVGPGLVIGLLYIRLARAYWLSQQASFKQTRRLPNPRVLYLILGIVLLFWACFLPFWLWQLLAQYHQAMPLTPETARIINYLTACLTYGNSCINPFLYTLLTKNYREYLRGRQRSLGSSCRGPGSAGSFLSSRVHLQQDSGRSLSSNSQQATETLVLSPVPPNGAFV
Method in brief: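 Cloned mouse urotensin (mUR2) receptor membranes from Perkin Elmer Biosignal were immobilized in FlashPlate microplates using a proprietary coating. Each well got 19.5 μl buffer, then 0.5 μl of DMSO, reference ligand, or compound. Adding 5 μl of [125I]-Urotensin II, diluted to 5× final concentration in binding buffer, started binding. Plates were sealed with TopSeal-A and incubated 1 hour at room temperature in the dark. Wells were counted for 30 seconds each on a TopCount after a 60-second delay, and percentage inhibition was calculated.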

T1 sequence (P41143 whole entry): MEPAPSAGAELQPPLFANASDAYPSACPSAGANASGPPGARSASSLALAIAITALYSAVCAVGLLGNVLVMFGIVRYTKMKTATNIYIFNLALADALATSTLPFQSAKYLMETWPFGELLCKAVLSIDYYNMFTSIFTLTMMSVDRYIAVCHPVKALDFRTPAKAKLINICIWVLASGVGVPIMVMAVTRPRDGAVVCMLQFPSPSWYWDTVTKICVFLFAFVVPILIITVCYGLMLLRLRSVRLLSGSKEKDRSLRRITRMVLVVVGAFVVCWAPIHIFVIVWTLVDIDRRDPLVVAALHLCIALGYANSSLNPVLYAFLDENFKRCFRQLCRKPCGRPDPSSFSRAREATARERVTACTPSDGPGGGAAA

## CO[C@H]1[C@H](O)[C@@H](COCc2ccc3ccccc3c2)OC(OCc2ccc(Cl)cc2)[C@@H]1NC(=O)C1CCN(C(=N)N)CC1 (stereo partly shown) [compound 354]
Human δ-opioid (DOP); [3H]-Bremazocine
  A1: inhibition of radioligand binding, human δ-opioid (DOP): − (“−” indicates less than 50% inhibition at 10 μM)
Human κ-Opioid (KOP); [3H]-Diprenorphine
  A2: inhibition of radioligand binding, human κ-opioid (KOP): − (“−” indicates less than 50% inhibition at 10 μM)
Human Melanocortin (MC3); [125I]-NDP-αMSH
  A3: inhibition of radioligand binding, human melanocortin (MC3): − (“−” indicates less than 50% inhibition at 10 μM)
Human Melanocortin (MC4); [125I]-NDP-αMSH
  A4: inhibition of radioligand binding, human melanocortin (MC4): + (“+” indicates greater than 50% inhibition at 10 μM)
Human melanocortin (MC5); [125I]-NDP-αMSH
  A5: inhibition of radioligand binding, human melanocortin (MC5): + (“+” indicates greater than 50% inhibition at 10 μM)
[1]; [125I]-S36057
  A6: inhibition of radioligand binding, human melanin-concentrating hormone (MCH1): − (“−” indicates less than 50% inhibition at 10 μM)
Human μ-opioid (MOP); [3H]-Naloxone
  A7: inhibition of radioligand binding, human μ-opioid (MOP): − (“−” indicates less than 50% inhibition at 10 μM)
Human neurokinin (NK1); [125I]-Substance P
  A8: inhibition of radioligand binding, human neurokinin (NK1): + (“+” indicates greater than 50% inhibition at 10 μM)
[2]; [125I]-PYY
  A9: inhibition of radioligand binding, human neuropeptide Y (NPY-Y1): − (“−” indicates less than 50% inhibition at 10 μM)
Human opioid (ORL1); [125I]-Nociceptin
  A10: inhibition of radioligand binding, human opioid (ORL1): − (“−” indicates less than 50% inhibition at 10 μM)
Mouse urotensin (mUR2); [125I]-Urotensin II
  A11: inhibition of radioligand binding, mouse urotensin (mUR2): − (“−” indicates less than 50% inhibition at 10 μM)

## NCCC(=O)N[C@H]1C(OCc2ccc3ccccc3c2)O[C@H](COCc2ccccc2)[C@@H](O)[C@@H]1OCc1ccc(Cl)cc1 (stereo partly shown) [compound 439]
Human δ-opioid (DOP); [3H]-Bremazocine, human DOP membranes
  A1: inhibition of radioligand binding: − (“−” indicates less than 50% inhibition at 10 μM)
Human κ-Opioid (KOP); [3H]-Diprenorphine, human KOP membranes
  A2: inhibition of radioligand binding: − (“−” indicates less than 50% inhibition at 10 μM)
Human Melanocortin (MC3); [125I]-NDP-αMSH, human MC3 membranes
  A3: inhibition of radioligand binding: − (“−” indicates less than 50% inhibition at 10 μM)
Human Melanocortin (MC4); [125I]-NDP-αMSH, human MC4 membranes, 10 µM
  A4: inhibition of radioligand binding: + (“+” indicates greater than 50% inhibition at 10 μM)
Human melanocortin (MC5); [125I]-NDP-αMSH, human MC5 membranes, 10 µM
  A5: inhibition of radioligand binding: + (“+” indicates greater than 50% inhibition at 10 μM)
[1]; [125I]-S36057, human MCH1 membranes, 10 µM
  A6: inhibition of radioligand binding: − (“−” indicates less than 50% inhibition at 10 μM)
Human μ-opioid (MOP); [3H]-Naloxone, human MOP membranes
  A7: inhibition of radioligand binding: − (“−” indicates less than 50% inhibition at 10 μM)
Human neurokinin (NK1); [125I]-Substance P, human NK1 membranes
  A8: inhibition of radioligand binding: + (“+” indicates greater than 50% inhibition at 10 μM)
[2]; [125I]-PYY, human NPY-Y1 membranes
  A9: inhibition of radioligand binding: − (“−” indicates less than 50% inhibition at 10 μM)
Human opioid (ORL1); [125I]-Nociceptin, human ORL1 membranes
  A10: inhibition of radioligand binding: − (“−” indicates less than 50% inhibition at 10 μM)
Mouse urotensin (mUR2); [125I]-Urotensin II, mouse mUR2 membranes
  A11: inhibition of radioligand binding: − (“−” indicates less than 50% inhibition at 10 μM)

## CO[C@H]1[C@H](O)[C@@H](COCc2ccc(-c3ccccc3)cc2)OC(OCc2ccc(-c3ccccc3)cc2)[C@@H]1NC(=O)CNC(=N)N (stereo partly shown) [compound 51]
Human δ-opioid (DOP)
  A1 radioligand binding inhibition: − (“−” indicates less than 50% inhibition at 10 μM)
Human κ-Opioid (KOP)
  A2 radioligand binding inhibition: − (“−” indicates less than 50% inhibition at 10 μM)
Human Melanocortin (MC3)
  A3 radioligand binding inhibition: + (“+” indicates greater than 50% inhibition at 10 μM)
Human Melanocortin (MC4)
  A4 radioligand binding inhibition: + (“+” indicates greater than 50% inhibition at 10 μM)
Human melanocortin (MC5)
  A5 radioligand binding inhibition: + (“+” indicates greater than 50% inhibition at 10 μM)
[1]
  A6 radioligand binding inhibition: + (“+” indicates greater than 50% inhibition at 10 μM)
Human μ-opioid (MOP)
  A7 radioligand binding inhibition: − (“−” indicates less than 50% inhibition at 10 μM)
Human neurokinin (NK1)
  A8 radioligand binding inhibition: + (“+” indicates greater than 50% inhibition at 10 μM)
[2]; human NPY-Y1 membranes
  A9 radioligand binding inhibition: − (“−” indicates less than 50% inhibition at 10 μM)
Human opioid (ORL1); human ORL1 membranes
  A10 radioligand binding inhibition: + (“+” indicates greater than 50% inhibition at 10 μM)
Mouse urotensin (mUR2)
  A11 radioligand binding inhibition: − (“−” indicates less than 50% inhibition at 10 μM)

## COC[C@H]1OC(OCc2ccc3ccccc3c2)[C@H](NC(=O)CNC(=N)N)[C@@H](OCc2ccc(-c3ccccc3)cc2)[C@@H]1O (stereo partly shown) [compound 14]
Human δ-opioid (DOP)
  A1 radioligand binding inhibition: − (“−” indicates less than 50% inhibition at 10 μM)
Human κ-Opioid (KOP)
  A2 radioligand binding inhibition: − (“−” indicates less than 50% inhibition at 10 μM)
Human Melanocortin (MC3)
  A3 radioligand binding inhibition: − (“−” indicates less than 50% inhibition at 10 μM)
Human Melanocortin (MC4)
  A4 radioligand binding inhibition: + (“+” indicates greater than 50% inhibition at 10 μM)
Human melanocortin (MC5)
  A5 radioligand binding inhibition: + (“+” indicates greater than 50% inhibition at 10 μM)
[1]
  A6 radioligand binding inhibition: + (“+” indicates greater than 50% inhibition at 10 μM)
Human μ-opioid (MOP)
  A7 radioligand binding inhibition: + (“+” indicates greater than 50% inhibition at 10 μM)
Human neurokinin (NK1)
  A8 radioligand binding inhibition: − (“−” indicates less than 50% inhibition at 10 μM)
[2]; human NPY-Y1 membranes
  A9 radioligand binding inhibition: − (“−” indicates less than 50% inhibition at 10 μM)
Human opioid (ORL1); human ORL1 membranes
  A10 radioligand binding inhibition: − (“−” indicates less than 50% inhibition at 10 μM)
Mouse urotensin (mUR2)
  A11 radioligand binding inhibition: − (“−” indicates less than 50% inhibition at 10 μM)

## CSC1OC(COCc2ccccc2)C(O)C(OCc2ccccc2)C1NC(=O)CCNC(=N)N (stereo not shown) [compound 251]
Human δ-opioid (DOP); [3H]-Bremazocine, FlashPlate
  A1: inhibition of radioligand binding: − (“−” indicates less than 50% inhibition at 10 μM)
Human κ-Opioid (KOP); [3H]-Diprenorphine, filtration
  A2: inhibition of radioligand binding: − (“−” indicates less than 50% inhibition at 10 μM)
Human Melanocortin (MC3); [125I]-NDP-αMSH, FlashPlate
  A3: inhibition of radioligand binding: − (“−” indicates less than 50% inhibition at 10 μM)
Human Melanocortin (MC4); [125I]-NDP-αMSH, FlashPlate
  A4: inhibition of radioligand binding: − (“−” indicates less than 50% inhibition at 10 μM)
Human melanocortin (MC5); [125I]-NDP-αMSH, FlashPlate
  A5: inhibition of radioligand binding: − (“−” indicates less than 50% inhibition at 10 μM)
[1]; [125I]-S36057, FlashPlate
  A6: inhibition of radioligand binding: − (“−” indicates less than 50% inhibition at 10 μM)
Human μ-opioid (MOP); [3H]-Naloxone, FlashPlate
  A7: inhibition of radioligand binding: − (“−” indicates less than 50% inhibition at 10 μM)
Human neurokinin (NK1); [125I]-Substance P, filtration
  A8: inhibition of radioligand binding: + (“+” indicates greater than 50% inhibition at 10 μM)
[2]; [125I]-PYY, FlashPlate
  A9: inhibition of radioligand binding: − (“−” indicates less than 50% inhibition at 10 μM)
Human opioid (ORL1); [125I]-Nociceptin, FlashPlate
  A10: inhibition of radioligand binding: − (“−” indicates less than 50% inhibition at 10 μM)
Mouse urotensin (mUR2); [125I]-Urotensin II, FlashPlate
  A11: inhibition of radioligand binding: − (“−” indicates less than 50% inhibition at 10 μM)
